Consider 3 compounds from patent publication US20140235576A1, “PYRROLIDINE-2-CARBOXYLIC ACID DERIVATIVES AS IGLUR ANTAGONISTS” (Kobenhavns Universitet, priority 2013, published 2014).

The target in test [1] is AMPA receptors. The following applies: native iGluR; values taken from reference 49; cited from earlier work.
Test [2] addresses KA receptors. The following applies: native iGluR; values taken from reference 49; cited from earlier work.
The target of test [3] is NMDA receptors. The conditions noted are these: native iGluR; values taken from reference 49; cited from earlier work.
Another test has as its target GluN1/GluN2B (Homo sapiens, UniProt Q13224). The following applies: cited from earlier work.
The target in test [4] is KA receptors. The experiment in a line: Radioligand binding at native KA receptors (rat synaptosomes). The conditions noted are these: native iGluRs. The source says:
(§1) Analog 2 was characterized pharmacologically in radio ligand binding assays at native iGluRs (rat synaptosomes) and cloned homomeric subtypes, GluK1-3 (Table 1).

The target in test [5] is AMPA receptors. The experiment in a line: Radioligand binding at native AMPA receptors (rat synaptosomes). The following applies: native iGluRs.
Excerpt: as §1

A further test deals with GluK2 (UniProt P42260). The experiment in a line: Radioligand binding at cloned homomeric GluK2. The conditions noted are these: cloned homomeric subtype.
Excerpt: as §1

The test system of the next test is GluN1/GluN2A-D. The experiment in a line: Functional assay for subtypes GluN1/GluN2A-D. Format: biochemical.
A further test deals with T1, GluK3 (Rattus norvegicus, UniProt P42264).
T1 construct: expressed in transfected cells
The experiment in a line: Radioligand binding at cloned homomeric GluK3. The following applies: cloned homomeric subtype.
Excerpt: as §1

The next test concerns the target GluK1 (UniProt P22756). Nature of the test: Radioligand binding at cloned homomeric GluK1. The conditions noted are these: cloned homomeric subtype.
Excerpt: as §1

The target in test [6] is NMDA receptors. Nature of the test: Radioligand binding at native NMDA receptors (rat synaptosomes). The following applies: native iGluRs.
Excerpt: as §1

Read-outs that look alike come from different tables or passages of the source. No end group written: not given here.

GluN1/GluN2B, sequence (Q13224 27-1484, species assumed, other chains not shown): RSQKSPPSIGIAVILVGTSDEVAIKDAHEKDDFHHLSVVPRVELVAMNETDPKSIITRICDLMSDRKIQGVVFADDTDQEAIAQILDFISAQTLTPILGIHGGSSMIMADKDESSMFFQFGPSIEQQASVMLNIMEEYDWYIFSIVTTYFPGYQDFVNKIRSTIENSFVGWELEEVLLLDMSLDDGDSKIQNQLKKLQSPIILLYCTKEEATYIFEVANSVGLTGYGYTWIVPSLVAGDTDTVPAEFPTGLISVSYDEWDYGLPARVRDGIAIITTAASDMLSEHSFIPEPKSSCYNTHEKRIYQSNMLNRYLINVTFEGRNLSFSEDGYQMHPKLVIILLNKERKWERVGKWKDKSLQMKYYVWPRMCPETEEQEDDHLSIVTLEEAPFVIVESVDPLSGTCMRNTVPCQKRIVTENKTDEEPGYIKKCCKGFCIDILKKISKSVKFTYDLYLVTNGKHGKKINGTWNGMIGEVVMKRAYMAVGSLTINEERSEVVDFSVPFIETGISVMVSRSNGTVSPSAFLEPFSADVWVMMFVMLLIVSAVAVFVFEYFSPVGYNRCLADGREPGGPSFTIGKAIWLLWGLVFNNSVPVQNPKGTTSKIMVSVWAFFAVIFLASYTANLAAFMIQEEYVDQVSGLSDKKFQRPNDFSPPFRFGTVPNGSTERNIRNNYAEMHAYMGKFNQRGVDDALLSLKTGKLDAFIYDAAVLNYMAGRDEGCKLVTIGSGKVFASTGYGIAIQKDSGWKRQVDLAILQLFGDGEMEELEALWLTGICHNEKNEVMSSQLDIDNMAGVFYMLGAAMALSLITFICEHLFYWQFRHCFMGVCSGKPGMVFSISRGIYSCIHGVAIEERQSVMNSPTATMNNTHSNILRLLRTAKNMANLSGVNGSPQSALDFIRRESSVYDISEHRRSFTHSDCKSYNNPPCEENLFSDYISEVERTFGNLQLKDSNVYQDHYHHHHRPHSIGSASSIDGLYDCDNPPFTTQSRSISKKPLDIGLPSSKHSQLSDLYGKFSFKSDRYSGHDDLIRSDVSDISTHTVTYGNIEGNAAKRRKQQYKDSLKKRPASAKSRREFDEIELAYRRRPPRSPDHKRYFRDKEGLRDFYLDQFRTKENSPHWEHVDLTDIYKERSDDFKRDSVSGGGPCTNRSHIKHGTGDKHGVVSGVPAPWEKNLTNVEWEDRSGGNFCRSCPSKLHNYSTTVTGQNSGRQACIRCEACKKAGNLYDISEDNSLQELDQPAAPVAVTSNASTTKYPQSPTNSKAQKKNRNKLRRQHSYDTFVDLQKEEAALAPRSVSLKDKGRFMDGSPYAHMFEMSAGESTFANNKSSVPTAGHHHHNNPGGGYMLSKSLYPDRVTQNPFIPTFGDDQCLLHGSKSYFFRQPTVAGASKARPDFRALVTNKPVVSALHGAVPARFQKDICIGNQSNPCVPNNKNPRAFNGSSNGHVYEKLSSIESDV
T1 sequence (P42264 32-919): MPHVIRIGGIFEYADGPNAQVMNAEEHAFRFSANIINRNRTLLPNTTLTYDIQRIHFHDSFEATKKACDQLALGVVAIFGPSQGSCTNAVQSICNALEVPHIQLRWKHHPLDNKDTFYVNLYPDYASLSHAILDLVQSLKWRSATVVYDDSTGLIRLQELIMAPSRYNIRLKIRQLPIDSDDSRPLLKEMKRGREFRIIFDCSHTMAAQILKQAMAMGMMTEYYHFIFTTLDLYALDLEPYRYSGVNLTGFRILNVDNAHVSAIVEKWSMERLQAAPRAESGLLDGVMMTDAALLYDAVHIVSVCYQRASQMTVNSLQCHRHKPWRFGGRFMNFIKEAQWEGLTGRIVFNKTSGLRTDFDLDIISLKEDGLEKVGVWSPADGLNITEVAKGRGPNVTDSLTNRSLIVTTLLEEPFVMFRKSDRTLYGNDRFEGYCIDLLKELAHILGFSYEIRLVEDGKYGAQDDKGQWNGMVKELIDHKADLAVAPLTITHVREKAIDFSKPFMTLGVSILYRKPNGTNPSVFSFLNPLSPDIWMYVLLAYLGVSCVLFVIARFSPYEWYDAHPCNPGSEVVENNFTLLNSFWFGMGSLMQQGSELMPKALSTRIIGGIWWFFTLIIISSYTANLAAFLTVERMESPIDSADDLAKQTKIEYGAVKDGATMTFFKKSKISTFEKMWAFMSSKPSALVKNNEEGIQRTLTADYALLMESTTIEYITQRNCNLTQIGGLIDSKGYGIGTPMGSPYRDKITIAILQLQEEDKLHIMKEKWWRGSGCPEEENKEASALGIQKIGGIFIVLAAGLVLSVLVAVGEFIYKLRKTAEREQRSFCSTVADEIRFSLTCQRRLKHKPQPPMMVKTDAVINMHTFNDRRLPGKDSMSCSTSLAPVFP

Usually IC50 stands for the midpoint of a concentration-inhibition curve. As usually defined, the Ki is the dissociation constant of the complex between target and ligand, obtained from inhibition or displacement. As for `O=C(O)c1cccc([C@H]2CCN[C@@H]2C(=O)O)c1` [Analog 1], on AMPA receptors [1], the IC50 was 51 µM. In addition, the “KA IC50” value on KA receptors [2] is 22 µM. On NMDA receptors [3], the Ki is 6 µM.

Consider “Conantokin G (GEEELQENQELIREKSN; ends and bridges not checked; UniProt P07231 81-97, looked up)”, for which, in the test with GluN1/GluN2B, the “preference for GluN1/GluN2B over GluN1/GluN2C and GluN1/2D” value was 10 fold; the “selectivity for GluN1/GluN2B over GluN1GluN2A” value is on record as 100 fold.

For `O=C(O)c1ccc([C@H]2CCN[C@@H]2C(=O)O)cc1` [Analog 2, (2S,3R)-3-(4-Carboxyphenyl)pyrrolidine-2-carboxylic Acid], on KA receptors [4], the “KA IC50” value was more than 100 µM. Moreover, the IC50 was more than 100 µM at AMPA receptors [5] and 8.5 µM at NMDA receptors [6] (read-out: affinity for the NMDA receptors (IC50)). For the same compound, the Ki at GluK2 was more than 100 µM; on GluK3, more than 100 µM; on GluK1, more than 100 µM; at NMDA receptors [6] it was 8.5 µM. The “functional character at GluN1/GluN2A-D” value with GluN1/GluN2A-D is listed as “antagonist”. Moreover, the “NMDA, value in square brackets under Ki (pKi ± spread)” value at NMDA receptors [6] was “[5.07 ± 0.04]”.
